The values that follow are results of earlier work, collected in US8679534B2, “HMG-CoA reductase inhibitor extended release formulation” (Andrx Labs, LLC, priority 1997, dated 2014).

For the data set, the system named is blood serum cholesterol level. As to conditions: background statement.

Regarding `CC[C@H](C)C(=O)O[C@H]1C[C@@H](C)C=C2C=C[C@H](C)[C@H](CC[C@@H]3C[C@@H](O)CC(=O)O3)[C@H]21` [Lovastatin, lovastatin], the “lowering of the blood serum cholesterol level” value was 30-40%.
